Test results: patent US6803186B2, “Compositions and methods for increasing amino acid absorption in mammals” (The IAMS Company, priority 2001, dated 2004)
Several values for one entry are separate records, joined by “and”; a condition that tells them apart may be missing. Identical values can stand only once. Each block holds one molecule with its values, some of them ahead of it. Peptide text beside a SMILES is read from it.

What was measured:
canine PepT1 (cPepT1) [1] = molecular target: T1, canine PepT1 (cPepT1) (Canis lupus familiaris, UniProt Q8WMX5); assay: Inhibition of H+-dependent 100 μM GlySar uptake by MDCK cells cultured in LHM; assay type: cell-based; settings: for % inhibition of H+-dependent GlySar uptake: 1 mM extracellular substrate, 100 μM GlySar, pH 6.0, 30 min
T1 construct: endogenous in cells; host or cells: MDCK (Madin-Darby Canine Kidney) cells, whole-cell [3H]-GlySar uptake
T1 sequence (Q8WMX5 1-708): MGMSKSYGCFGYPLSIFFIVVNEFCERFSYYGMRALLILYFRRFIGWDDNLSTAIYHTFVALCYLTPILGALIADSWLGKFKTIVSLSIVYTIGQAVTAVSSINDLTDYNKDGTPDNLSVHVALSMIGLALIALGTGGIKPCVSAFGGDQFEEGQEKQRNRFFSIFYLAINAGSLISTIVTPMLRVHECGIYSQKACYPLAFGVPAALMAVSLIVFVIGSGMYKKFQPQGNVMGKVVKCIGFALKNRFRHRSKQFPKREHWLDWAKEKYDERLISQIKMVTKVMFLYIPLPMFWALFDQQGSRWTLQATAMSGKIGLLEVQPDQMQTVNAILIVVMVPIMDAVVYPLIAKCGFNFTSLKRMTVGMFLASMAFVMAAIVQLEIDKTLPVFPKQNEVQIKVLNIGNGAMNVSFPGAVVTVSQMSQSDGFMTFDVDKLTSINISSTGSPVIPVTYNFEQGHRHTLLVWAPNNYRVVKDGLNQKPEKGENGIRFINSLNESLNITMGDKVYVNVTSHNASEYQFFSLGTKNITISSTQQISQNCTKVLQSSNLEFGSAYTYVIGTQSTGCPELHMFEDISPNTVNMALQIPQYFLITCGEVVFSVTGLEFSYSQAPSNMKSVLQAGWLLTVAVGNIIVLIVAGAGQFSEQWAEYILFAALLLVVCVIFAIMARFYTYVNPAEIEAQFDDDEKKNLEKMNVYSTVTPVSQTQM
Procedure: Characteristic hallmarks of low affinity H^+/peptide cotransport activity, classically defined using membrane vesicles of several species, and more recently by functional expression studies using human, rat, and rabbit PepT1 cDNA, is the recognition of some, but not all, β-lactam antibiotics. […] To determine whether MDCK cPepT1 activity shared these functional features, the uptake of 100 μM GlySar in the absence and presence of pH 7.5 and pH 6.0 buffer, and, in pH 6.0 buffers, the presence of 1 mM additional GlySar (self-inhibitor control), 3 mM Penicillin-G, 30 μM cefadroxil, or 3 mM cefadroxil was compared (FIG. 13).
Other hallmarks of PepT1 function are the decreased ability of Gly-containing peptides to inhibit GlySar, in proportion to their length, and sensitivity to inhibition by carnosine (β-Ala-His).
Accordingly, the following general regimen was used to perform a series of experiments that evaluated the relative abilities of candidate di-(primarily) and tri-peptides to inhibit GlySar uptake by endogenously expressed cPepT1 in MDCK cells:
1. Sixty thousand cells/well were plated into collagen-coated 24-well trays and cultured at 37° C. in an atmosphere of 95% air/5% CO2 in DMEM/10% FCS that contained antibiotics for 1 day.
2. The media was removed and cells were cultured in LHM/10% FCS/antibiotics for 1 day.
3. The media was removed and cells cultured in LHM/10% FCS (no antibiotics) for 20 h.
4. The media was removed and cells cultured for 30 min in air at 37° C. in depletion medium (25 mM Hepes/Tris (pH 7.5), 140 mM NaCl, 5.4 mM KCl, 1.8 mM CaCl2, 0.8 mM MgSO4, and 5 mM glucose, to normalize intracellular nutrient pools.
(§1) 5. Transport was initiated by replacing depletion medium with uptake medium (depletion medium adjusted to pH 6.0 or kept at pH 7.4) that contained 100 μM GlySar (at a specific activity of 5 μCi/mL, with [^3H]-GlySar supplying 2.88% of total GlySar substrate) and (or) 1 mM of inhibiting peptide.
In total, 23 inhibitory peptides and 2 drug compounds were screened using this protocol.

MDCK cells = assay: Inhibition of H+-independent GlySar uptake by MDCK cells; assay type: cell-based, canine; settings: 1 mM peptide, 100 μM GlySar
Procedure: as §1

canine PepT1 (cPepT1) [2] = molecular target: T1, canine PepT1 (cPepT1); assay: Inhibition of H+-dependent 100 μM GlySar uptake by MDCK cells cultured in LHM; assay type: cell-based; settings: 100 μM extracellular substrate
canine PepT1 (cPepT1) [3] = molecular target: T1, canine PepT1 (cPepT1); assay: Competitor substrate inhibition of [3H]-GlySar uptake by confluent MDCK cells (Example 1); assay type: cell-based; settings: for Glysylsarcosine uptake: extracellular pH 6.0, 10 mM competitor, 2.88 [3H]-glycylsarcosine, 30 min; for inhibition of H+-dependent uptake of GlySar: 10 mM competitor; for % inhibition of pH 6.0 uptake: pH 6.0, 10 mM competitor
Procedure: (§2) Potential expression of PepT1 transport activity (H^+-dependent, dipeptide inhibitable, low-affinity dipeptide transport) by confluent MDCK cells was evaluated using whole-cell transport techniques and glycylsarcosine (GlySar) as a model dipeptide substrate. Cells were seeded at 60,000 cells/cm^2 into 24-well trays that had been coated with rat tail collagen or poly-L-lysine and cultured ([…]:5% CO2 at 37° C.) for 3 d in media consisting of Dulbecco's Modified Eagle Medium/10% fetal calf serum/1% antimicrobial antibacterial medium. Absorption (pmols/mg protein) of [^3H]-glycyl-L-sarcosine (GlySar, 6 mCi/mL, Moravek Biochemicals, Brea, Calif.) was determined using the 24-well cluster tray method and representative scintillation counting. Before transport, cells were incubated at 37° C. for 30 min in 25 mM Hepes/Tris (pH 7.5), 140 mM NaCl, 5.4 mM KCl, 1.8 mM CaCl2, 0.8 mM MgSO4, and 5 mM glucose (uptake buffer) to normalize intracellular amino acid and peptide pools. Transport was initiated by the addition of 0.25 mL of uptake buffer that contained 2.88 μm GlySar. After 30 min of uptake at 37° C., transport was terminated by rapid washing of cells with 4×2 mL 4° C. uptake buffer. Cellular protein was precipitated with 10% trichloroacetic acid and the supernatant recovered and counted to determine radioactivity (^3H) content. Cellular protein was then solubilized in 0.2 N NaOH and 0.2% SDS and quantified by the Lowry procedure, using bovine serum albumin as a standard. The amount of H^+-dependent GlySar absorbed was calculated as the difference between uptake in pH 6.0 and pH 7.5 uptake buffers. The amount of competitor substrate-inhibitable GlySar uptake was calculated as the quotient of GlySar uptake in the absence and presence of 10 mM competitor substrate (dipeptide or amino acid) multiplied by 100%.

[4] = substrate: CN(CC(=O)O)C(=O)CN; assay: Characterization of GlySar uptake by MDCK cells (Km, pH gradient, time course); assay type: cell-based, canine; settings: 37.0 °C
Procedure: as §2, with “Transport was initiated by the addition of 0.25 mL of uptake buffer that contained 2.88 μm GlySar. After 30 min of uptake at 37° C., transport was terminated by rapid washing of cells with 4×2 mL 4° C. uptake buffer.” left out
To preliminarily characterize the kinetic parameters of peptide transport by MDCK cells, the uptake of GlySar in media that contained pH 6.0 and 0.00064, 0.0025, 0.010, 0.04, 0.160, 0.640, 2.56, or 10.2 mM of GlySar was measured (FIG. 6). […]
To confirm that H^+-dependent GlySar uptake was saturable, and therefore mediated, the uptake of GlySar from pH 6.0 and 7.4 uptake buffers containing 0.025, 0.1, 0.4, 1.6, 6.4, or 25.6 mM GlySar was evaluated (FIG. 12). […]

Molecule: N[C@@H](Cc1c[nH]c2ccccc12)C(=O)O [Trp, tryptophan]
% inhibition of H+-dependent GlySar uptake (canine PepT1 (cPepT1) [1]): neither Leu nor Trp significantly influenced

% inhibition of H+-dependent GlySar uptake (canine PepT1 (cPepT1) [1]): 19%
Molecule: [Gly]4 (GGGG) [positive control (model) substrate]

% inhibition of H+-dependent GlySar uptake (canine PepT1 (cPepT1) [2]): 62%
Molecule: N[C@@H](Cc1c[nH]c2ccccc12)C(=O)N[C@@H](Cc1c[nH]c2ccccc12)C(=O)O [TrpTrp] (H-Trp-Trp-OH; N-terminus and C-terminus assumed)
inhibition of H+-independent GlySar uptake (MDCK cells): about 22%

Glysylsarcosine uptake (canine PepT1 (cPepT1) [3]; collagen-coated trays): 63.0 ± 4.00 pmol 30 min^−1 mg^−1 protein
Molecule: CC(C)C[C@H](N)C(=O)O [Leucine]
Glysylsarcosine uptake (canine PepT1 (cPepT1) [3]; poly-L-lysine-coated trays): 41.93 ± 2.70 pmol 30 min^−1 mg^−1 protein | % inhibition of H+-dependent GlySar uptake (canine PepT1 (cPepT1) [1]): neither Leu nor Trp significantly influenced

inhibition of H+-dependent uptake of GlySar (canine PepT1 (cPepT1) [3]; cells grown on collagen): 92% | inhibition of H+-dependent uptake of GlySar (canine PepT1 (cPepT1) [3]; cells grown on poly-lysine): 92% | Glysylsarcosine uptake (canine PepT1 (cPepT1) [3]; collagen-coated trays): 5.21 ± 0.39 pmol 30 min^−1 mg^−1 protein | % inhibition of pH 6.0 uptake (canine PepT1 (cPepT1) [3]; collagen-coated trays): 8.0% | Glysylsarcosine uptake (canine PepT1 (cPepT1) [3]; poly-L-lysine-coated trays): 3.44 ± 0.27 pmol 30 min^−1 mg^−1 protein | % inhibition of pH 6.0 uptake (canine PepT1 (cPepT1) [3]; poly-L-lysine-coated trays): 8.1% | % inhibition of H+-dependent GlySar uptake (canine PepT1 (cPepT1) [1]): 117% and 116% | % inhibition of H+-dependent GlySar uptake (canine PepT1 (cPepT1) [2]): 92% and 94%
Molecule: CC(C)C[C@H](NC(=O)[C@@H](N)Cc1c[nH]c2ccccc12)C(=O)O [TrpLeu] (H-Trp-Leu-OH; N-terminus and C-terminus assumed)
inhibition of H+-independent GlySar uptake (MDCK cells): 36%

% inhibition of H+-dependent GlySar uptake (canine PepT1 (cPepT1) [1]): 0% | inhibition of H+-dependent GlySar uptake (canine PepT1 (cPepT1) [1]; 3 mM Penicillin-G, 100 μM GlySar (FIG. 13)): not inhibited
Molecule: CC1(C)S[C@@H]2[C@H](NC(=O)Cc3ccccc3)C(=O)N2[C@H]1C(=O)O [Penicillin-G]

% inhibition of H+-dependent GlySar uptake (canine PepT1 (cPepT1) [1]): 5.0%
Molecule: NCC(=O)O [Gly]

% inhibition of H+-dependent GlySar uptake (canine PepT1 (cPepT1) [1]): 50%
Molecule: MetGlyMetMet (MGMM; OTHER INFORMATION: tetrapeptide)

inhibition of H+-dependent uptake of GlySar (canine PepT1 (cPepT1) [3]; cells grown on collagen): 88% | inhibition of H+-dependent uptake of GlySar (canine PepT1 (cPepT1) [3]; cells grown on poly-lysine): 87% | Glysylsarcosine uptake (canine PepT1 (cPepT1) [3]; collagen-coated trays): 7.68 ± 1.37 pmol 30 min^−1 mg^−1 protein | % inhibition of pH 6.0 uptake (canine PepT1 (cPepT1) [3]; collagen-coated trays): 11.7% | Glysylsarcosine uptake (canine PepT1 (cPepT1) [3]; poly-L-lysine-coated trays): 5.50 ± 0.58 pmol 30 min^−1 mg^−1 protein | % inhibition of pH 6.0 uptake (canine PepT1 (cPepT1) [3]; poly-L-lysine-coated trays): 13.0% | % inhibition of H+-dependent GlySar uptake (canine PepT1 (cPepT1) [1]): 113% | % inhibition of H+-dependent GlySar uptake (canine PepT1 (cPepT1) [2]): 58%
Molecule: CC(C)C[C@H](N)C(=O)N[C@@H](Cc1c[nH]c2ccccc12)C(=O)O [LeuTrp]
inhibition of H+-independent GlySar uptake (MDCK cells): 46%

B1: canine PepT1 (cPepT1) (Canis lupus familiaris) (protein)
chain: T1 sequence (Q8WMX5 1-708)
notes: endogenous in cells; host or cells: MDCK (Madin-Darby Canine Kidney) cells, whole-cell [3H]-GlySar uptake
Km ([4]; other: MDCK cells seeded at 60K/well grown in LHM (FIG. 12)): 1100 µM and 1000 µM | Km ([4]; other: MDCK cells, only pH 6.0 uptake buffer, pH 6.0): 1100 µM | Km ([4]; other: confluent MDCK cells, pH 6.0 media, graphical evaluation (FIG. 6), pH 6.0): 4000 µM
